From paper PMC8041304, “Halogen Atoms in the Protein–Ligand System. Structural and Thermodynamic Studies of the Binding of Bromobenzotriazoles by the Catalytic Subunit of Human Protein Kinase CK2” (The Journal of Physical Chemistry. B, 2021)
Values joined by “and” are separate entries in the source; they are usually repeats but may differ in a detail not shown here. Equal entries are not always repeated. Where two headings read alike, the source gives them in different places.

Key:
hCK2α [1] = biological target: T1, hCK2α (Homo sapiens, UniProt P68400); design: method as in PMID 32162783; settings: cited from earlier work
T1 construct: made in house
T1 sequence (P68400 whole entry): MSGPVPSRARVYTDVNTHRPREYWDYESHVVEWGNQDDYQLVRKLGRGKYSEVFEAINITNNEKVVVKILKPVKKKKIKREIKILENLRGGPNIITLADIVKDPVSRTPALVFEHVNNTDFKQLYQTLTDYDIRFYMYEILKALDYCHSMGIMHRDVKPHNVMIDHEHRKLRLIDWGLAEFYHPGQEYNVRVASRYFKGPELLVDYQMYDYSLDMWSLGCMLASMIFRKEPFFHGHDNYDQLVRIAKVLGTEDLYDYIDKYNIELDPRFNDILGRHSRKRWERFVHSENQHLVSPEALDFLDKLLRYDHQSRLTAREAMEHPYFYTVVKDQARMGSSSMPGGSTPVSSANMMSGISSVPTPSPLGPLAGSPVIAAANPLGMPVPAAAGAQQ

hCK2α [2] = biological target: T1, hCK2α; assay: Fluorescence-monitored thermal denaturation (nanoDSF) of hCK2α complexes; assay type: binding; settings: protein 2.5 μM, ligand 25 μM; for Tm (°C) at pH 7.5: hCK2α in complex with ligand; for ΔTm (°C) at pH 7.5: unfolding temperature with ligand minus without
Protocol: The samples were loaded into nanoDSF grade Standard Capillaries (NanoTemper Technologies) and analyzed using the Prometheus NT.48 nanoDSF device (NanoTemper Technologies). Thermal unfolding of the protein was monitored using a linear thermal ramp (1 °C·min^–1; 20–80 °C) with an excitation power of 30%.
This prompted us to measure the thermal stabilities of hCK2α and its complexes at pH 7.5 by fluorescence-monitored thermal denaturation (nanoDSF) (Table 2).

hCK2α [3] = biological target: T1, hCK2α; design: method as in PMID 23155426; settings: pH 7.5; cited from earlier work
hCK2α [4] = biological target: T1, hCK2α; assay: Isothermal titration calorimetry (NanoITC); assay type: binding; settings: pH 8
Protocol: (§1) In all experiments the maximum ligand concentration of 10 μM was used to minimize a possible contribution of the secondary binding site.

[5] = design: method as in doi:10.1016/j.molliq.2019.111527; settings: calculated water–octanol partition coefficient; cited from earlier work
[6] = design: method as in PMID 32162783; settings: HPLC-derived hydrophobicity; cited from earlier work
hCK2α [7] = biological target: T1, hCK2α; assay: Isothermal titration calorimetry (MicroCal iTC200), reverse titration; assay type: binding; settings: for ΔGbind, free energy of binding: ITC; for ΔSrt, entropic term for loss of ligand rotational and translational degrees of freedom: calculated from ligand molecular mass; for Ts, temperature at which the entropy change upon ligand binding is zero: estimated from the linear fit of ΔS(T); for ΔSHE(Ts), hydrophobic-effect contribution to the entropy change upon binding: ≈ 1.35∙ΔCp,bind∙ln(Ts/386)
Protocol: ITC measurements were carried out using the MicroCal iTC200 (Malvern) calorimeter. The hCK2α samples were diluted to the required protein concentration with the 25 mM Tris-HCl pH 8 buffer containing 0.5 M NaCl. Stock ligand solutions were diluted with the appropriate DMSO volume prior to mixing with the buffer to obtain the required ligand concentration and a final DMSO content of 1%. Due to the limited solubility of halogenated benzotriazoles, all titration experiments were performed in the reverse mode, in which buffered ligand solution was placed in the calorimetric cell and titrated with the protein solution.[35]
as §1

hCK2α [8] = biological target: T1, hCK2α; design: method as in PMID 25891901; settings: cited from earlier work
[9] = Density measurements: partial molar volume and thermal expansivity of the solute; assay type: physicochemical; settings: 50 mM phosphate buffer pH 11; for α2^0, thermal volumetric expansivity of the solute: 20, 25, 30 °C; for V2^0, partial molar volume: 25 °C
Protocol: Partial molar volumes were estimated with a density meter Anton Paar DMA 5000 M at 20, 25, and 30 °C from the concentration–density dependency for compounds dissolved in 50 mM phosphate buffer (pH 11). The experimental procedure and the data analysis method were described previously.[36],[57],[58] The partial molar volume at 25 °C (V2^0) and thermal volumetric expansivity of the solute (α2^0 = ∂V2^0/∂T) were estimated globally from two independent dilution series. The density of pure solvent (d0) was extrapolated individually for each experimental condition (i.e., temperature and buffer preparation). The change of d0 with temperature was further used to determine thermal volumetric expansivity coefficient of the bulk buffer according to the formula α0 = −(∂d0/∂T)/d0.
According to the Lum, Chandler, and Weeks (LCW) theory, the hydrophobic interactions scale for solutes of subnanometer size with the volume of the molecule rather than its surface.[61] We have recently proposed partial molar volume as the extensive parameter to describe both the solute volume and the solute-induced reorganization of the solvation shell.[36],[57],[58],[62],[63] By analyzing density data at three temperatures (20, 25, and 30 °C), we could estimate the partial molar volume of the ligand (V2^0) and the bulk solvent density (d0(T)). We could further separate the thermal expansivity coefficient of the bulk solvent (α0) and the apparent expansivity of the solute (α2^0). The latter parameter is comprised mainly of the thermal expansion effect of the hydration shell. The values of α0 fell within the narrow range of (26.9 ± 1.3) × 10^–5 K^–1, which is close to the literature data for water (25.72 × 10^–5 K^–1 at 25 °C).[64] […] The solute thermal expansivity (α2^0), together with the change of isobaric heat capacity upon ligand binding (ΔCp,bind), has already been associated with the properties of the solvation layer.[65],[66] Importantly, α2^0 is proportional to the partial molar volume V2^0 (Figure 3D). So, V2^0 may be another descriptor of hydrophobic interactions. Consequently, the volume-normalized solute expansivity coefficient (α = α2^0/V2^0) is almost the same for all studied bromobenzotriazoles (232 ± 22 × 10^–5 K^–1). Importantly, this value substantially exceeds the thermal expansivity coefficient of the bulk buffer (α0 = 26.9 ± 1.3 × 10^–5 K^–1), clearly confirming that water organization changes with temperature more near the solute surface than in the bulk.

[10] = design: method as in PMID 22632480; settings: pH 8.0; cited from earlier work
hCK2α [11] = biological target: T1, hCK2α; design: method as in earlier work; settings: ref 6 (of the supplement); read-out: KATP, dissociation constant of ATP; cited from earlier work
[12] = iTC200, 20 °C, pH 8, independent experiments separately evaluated
[13] = iTC200, 25 °C, pH 8, independent experiments separately evaluated
[14] = iTC200, 30 °C, pH 8, independent experiments separately evaluated
[15] = iTC200, 35 °C, pH 8, independent experiments separately evaluated

Clc1c(Br)c(Br)c(Cl)c2[nH]nnc12 [5,6-Br2-4,7-Cl2Bt]
affinity to hCK2α among the four isomeric dibromo–dichlorobenzotriazoles (hCK2α [1]): highest affinity

Brc1cc2nn[nH]c2cc1Br [5,6-Br2Bt, 5,6-bromobenzotriazole]
Tm (°C) at pH 7.5 (hCK2α [2]): 52.96 ± 0.05 °C
ΔTm (°C) at pH 7.5 (hCK2α [2]): 7.8 ± 0.1 °C
IC50 (hCK2α [3]): 0.56 ± 0.02 µM
Kd (hCK2α [4]; 15 °C): 0.059 ± 0.049 µM
ΔG (hCK2α [4]; 15 °C): -9.54 ± 0.478 kcal/mol
ΔH (hCK2α [4]; 15 °C): -13.5 ± 1.12 kcal/mol
ΔS (hCK2α [4]; 15 °C): -58 ± 18 J·mol-1·K-1
Kd (hCK2α [4]; 20 °C): 0.06 ± 0.054 µM
ΔG (hCK2α [4]; 20 °C): -9.7 ± 0.526 kcal/mol
ΔH (hCK2α [4]; 20 °C): -14.8 ± 1.34 kcal/mol
ΔS (hCK2α [4]; 20 °C): -73 ± 21 J·mol-1·K-1
Kd (hCK2α [4]; 25 °C): 0.046 ± 0.026 µM
ΔG (hCK2α [4]; 25 °C): -10 ± 0.335 kcal/mol
ΔH (hCK2α [4]; 25 °C): -16.9 ± 0.765 kcal/mol
ΔS (hCK2α [4]; 25 °C): -97 ± 12 J·mol-1·K-1
Kd (hCK2α [4]; 30 °C): 0.15 ± 0.12 µM
ΔG (hCK2α [4]; 30 °C): -9.44 ± 0.454 kcal/mol
ΔH (hCK2α [4]; 30 °C): -18.3 ± 0.693 kcal/mol
ΔS (hCK2α [4]; 30 °C): -122 ± 11 J·mol-1·K-1
Kd (hCK2α [4]; 35 °C): 0.093 ± 0.049 µM
ΔG (hCK2α [4]; 35 °C): -9.92 ± 0.311 kcal/mol
ΔH (hCK2α [4]; 35 °C): -20.8 ± 1.86 kcal/mol
ΔS (hCK2α [4]; 35 °C): -148 ± 26 J·mol-1·K-1
log P [5]: 2.36
log(τ) [6]: –0.30
ΔGbind, free energy of binding (hCK2α [7]; 25 °C, pH 8): –40.9 ± 0.3 kJ·mol^–1
ΔSrt, entropic term for loss of ligand rotational and translational degrees of freedom (hCK2α [7]): -291 J∙mol-1∙K-1
Ts, temperature at which the entropy change upon ligand binding is zero (hCK2α [7]): 268 ± 42 K
Kd (hCK2α [7]; [12]): 0.032 µM and 0.033 µM
Kd (hCK2α [7]; [13]): 0.05 µM and 0.027 µM
Kd (hCK2α [7]; [14]): 0.084 µM and 0.069 µM
Kd (hCK2α [7]; [15]): 0.108 µM and 0.115 µM
ΔSHE(Ts), hydrophobic-effect contribution to the entropy change upon binding (hCK2α [7]): 291 ± 34 J∙mol-1∙K-1
ΔTm (°C) at pH 8 (hCK2α [8]): 7.4 ± 0.1 °C
α2^0, thermal volumetric expansivity of the solute [9]: 0.33 ± 0.14 cm^3·mol^–1·K^–1
V2^0, partial molar volume [9]: 150.0 ± 0.6 cm^3·mol^–1
fraction of the ligand that is neutral [10]: 0.08

Brc1ccc2n[nH]nc2c1 [5-BrBt]
Tm (°C) at pH 7.5 (hCK2α [2]): 47.17 ± 0.02 °C
ΔTm (°C) at pH 7.5 (hCK2α [2]): 2.0 ± 0.1 °C
IC50 (hCK2α [3]): 26 ± 3 µM
log P [5]: 1.73
log(τ) [6]: –0.41
ΔGbind, free energy of binding (hCK2α [7]; 25 °C, pH 8): –34.4 ± 0.6 kJ·mol^–1
ΔSrt, entropic term for loss of ligand rotational and translational degrees of freedom (hCK2α [7]): -277 J∙mol-1∙K-1
Ts, temperature at which the entropy change upon ligand binding is zero (hCK2α [7]): 281 ± 152 K
Kd (hCK2α [7]; iTC200, 15 °C, pH 8, independent experiments separately evaluated): 0.88 µM and 0.49 µM
Kd (hCK2α [7]; [12]): 0.73 µM and 0.55 µM
Kd (hCK2α [7]; [13]): 0.93 ± 0.28 µM
ΔG (hCK2α [7]; [13]): -8.22 ± 0.14 kcal/mol and -8.22 ± 0.359 kcal/mol
Kd (hCK2α [7]; [14]): 1.27 µM and 0.99 µM
Kd (hCK2α [7]; [15]): 1.33 µM and 1.89 µM
ΔSother, entropy change assigned to all other processes accompanying ligand binding (hCK2α [7]; ΔSrt + ΔSHE(Ts) + ΔSother = 0): 157 ± 56 J∙mol-1∙K-1
ΔSHE(Ts), hydrophobic-effect contribution to the entropy change upon binding (hCK2α [7]): 120 ± 56 J∙mol-1∙K-1
ΔTm (°C) at pH 8 (hCK2α [8]): 1.8 ± 0.1 °C
α2^0, thermal volumetric expansivity of the solute [9]: 0.14 ± 0.20 cm^3·mol^–1·K^–1
V2^0, partial molar volume [9]: 132.7 ± 0.8 cm^3·mol^–1
fraction of the ligand that is neutral [10]: 0.26

Nc1ncnc2c1ncn2[C@@H]1O[C@H](COP(=O)(O)OP(=O)(O)OP(=O)(O)O)[C@@H](O)[C@H]1O [ATP]
Kd (hCK2α [11]): 4.3 ± 1.8 µM
